Laboratory results reported in patent US8691764B2, “Inhibitors of NF-κB activity” (The Research Foundation for the State University of New York, priority 2007, dated 2014).

Columns and labels:
[1] = test system: annexin 1; assay: Induction of annexin 1 in BxPC-3 cells, Western blot of nuclear and cytoplasmic extracts; type: cell-based, human
Method: (§1) The human pancreatic cancer cell line, BxPC-3, or the colon cancer cell line HT-29, both from ATCC (Manassas, Va.) were maintained and grown in RPMI 1640 or McCoy's 5A medium (Cellgro) supplemented with 10% fetal bovine serum (HyClone) and 1% penicillin/streptomycin (Cellgro) in a humidified incubator at 37° C. and 5% CO2.
The cell fractions were obtained as described by Andrews and Faller (N. C. Andrews and D. V. Faller, Nucleic Acids Res. 19:2499 (1991)) with modification. Briefly, the cells were pelleted after treatment and washed three times with PBS. The cell pellets were resuspended in ice cold buffer A (10 mM HEPES, pH 7.9, 10 mM KCl, 1.5 mM MgCI2, 0.5 mM DTT, 0.5 mM PMSF) with protease inhibitor cocktail (Sigma) and incubated on ice for 15 min with occasional mixing by gently tapping the tube. The cell lysates were centrifuged up to 5000 rpm for three times. The supernatants were collected as cytoplasmic extracts. Nuclear pellets were washed with buffer A and resuspended in buffer C (20 mM HEPES, pH 7.9, 450 mM NaCl, 1.5 mM MgCI2, 0.2 mM EDTA, 0.5 mM DTT, 0.5 mM PMSF, 25% Glycerol) with protease inhibitor cocktail (Sigma) and incubated on ice for 30 min with occasional mixing to extract nuclear proteins. Nuclear extracts were cleared by centrifugation (14,800 rpm for 10 min) and the supernatants were collected as nuclear extracts.
For Western blotting, the proteins from both cytoplasmic extracts and nuclear extracts were separated by SDS-polyacrylamide gel electrophoresis and transferred onto PVDF membranes (Millipore). The membranes were blocked in 5% nonfat dry milk-TBS-T (20 mM Tris-HCl, pH 7.5, 500 mM NaCl. 0.3% Tween 20) at room temperature (RT) for an hour and probed with anti-annexin 1, c-IAP-1, c-IAP-2, and TRAF-1 (Santa Cruz Biotechnology, Inc. CA), and anti-Bcl-2 antibodies (Cell Signaling Technology), in 5% nonfat dry milk-TBS-T at 4° C. overnight. The blots were washed three times with TBS-T for 5 min each wash and incubated with horseradish peroxidase-conjugated secondary antibody (Santa Cruz) in 5% nonfat dry milk-TBS-T at RT for an hour. After five washes with TBS-T, the blots were developed with the enhanced chemiluminescence system (ECL™ Western Blotting System, Amersham Biosciences) and exposed to x-ray film according to the manufacturer's instructions. Protein loading was normalized using anti-β-actin antibodies (Santa Cruz Biotechnology, Inc).

[2] = test system: annexin 1; assay: Induction of annexin 1 in HT-29 cells, Western blot; type: cell-based, human
Method: as §1
For the study of induction of annexin 1 by anti-inflammatory agents, the cells were incubated with either NO-ASA or Dex for 3 h. The cell fractions were obtained as described by Andrews and Faller (N. C. Andrews and D. V. Faller, Nucleic Acids Res. 19:2499 (1991)) with modification. Briefly, the cells were pelleted after treatment and washed three times with PBS. The cell pellets were resuspended in ice cold buffer A (10 mM HEPES, pH 7.9, 10 mM KCl, 1.5 mM MgCI2, 0.5 mM DTT, 0.5 mM PMSF) with protease inhibitor cocktail (Sigma) and incubated on ice for 15 min with occasional mixing by gently tapping the tube. The cell lysates were centrifuged up to 5000 rpm for three times. The supernatants were collected as cytoplasmic extracts. Nuclear pellets were washed with buffer A and resuspended in buffer C (20 mM HEPES, pH 7.9, 450 mM NaCl, 1.5 mM MgCI2, 0.2 mM EDTA, 0.5 mM DTT, 0.5 mM PMSF, 25% Glycerol) with protease inhibitor cocktail (Sigma) and incubated on ice for 30 min with occasional mixing to extract nuclear proteins. […]

[3] = test system: NF-κB p65; assay: Co-immunoprecipitation of annexin 1 with p65, BxPC-3 cells; type: cell-based, human; conditions: 3 h, NO-ASA 20 μM or Dex 4 μM
Method: The gel shift assays were carried out according to the manufacturer's protocol (Panomics). Nuclear proteins (10 μg) from each sample were mixed with 10 ng biotinylated p65 double-stranded oligonucleotide probes (5′-[…]-3′ and its complement) (SEQ ID NO:9) in the presence of 1 μg Poly(I/C) DNA. The mixture was incubated at room temperature for 30 min. The binding complex was then resolved using a 6% polyacrylamide/glycerol gel in 0.5% Tris-borate-EDTA, transferred onto a nylon membrane, and fixed on the membrane by UV cross-linking The biotin-labeled probe was detected with streptavidin-horseradish peroxidase. Co-immunoprecipitation was performed as follows: about 500 μg of cell extracts were incubated overnight with 5 μg of agarose-conjugated anti-p65 (Santa Cruz Biotechnology) or anti-annexin 1 antibody (Santa Cruz, Calif.). The precipitate was washed five times with washing buffer (Santa Cruz Biotechnology), dissolved in 2× Laemmli buffer, boiled, and separated by SDS-PAGE and detected by Western blot analysis using ECL™ (Amersham Biosciences) as described above. Control experiments were performed by using rabbit IgG for p65 and mouse IgG2b for annexin 1, respectively (Santa Cruz Biotechnology).

[4] = test system: annexin 1; assay: Annexin 1 levels in small intestine epithelial cells of treated Min and wild-type mice; type: in vivo; conditions: NO-ASA 100 mg/kg or Dex 10 mg/kg daily for 7 days
Method: (§2) To assess whether these changes occur in vivo, the inventors studied isolated small intestine epithelial cells from Min mice and the corresponding wild type mice C57BL/6J (of which the Min mice are a congenic derivative) treated with NO-ASA 100 mg/kg or Dex 10 mg/kg daily for 7 days. Min (multiple intestinal neoplasia), a mutant allele of the murine APC (adenomatous polyposis coli) locus, encodes a nonsense mutation at codon 850. Heterozygous Min mutants spontaneously develop tumors in the intestine and represent a model of intestinal carcinogenesis (M. Lipkin et al., Ann. N.Y. Acad. Sci. 889:14-19 (1999); A. Moser, H. Pitot, W. Dove, Science 247:322-324 (1990)). The levels of annexin 1 were increased in both Min and wild-type mice treated with either NO-ASA or Dex (FIG. 7A and FIG. 8A). The induction of annexin 1 by NO-ASA or Dex was accompanied by the inhibition of NF-κB activity (FIGS. 7B and 8B).
(§3) A mouse model of multiple intestinal neoplasia, the Min mice, and the congenic parent wild-type mice were used to test the in vivo action of NO-ASA in the induction of annexin 1. Both wild-type and Min mice were treated for 7 days with vehicle or NO-ASA 100 mg/kg. After 7 days of treatment, the mice were sacrificed and the epithelial cells were evaluated as in Example 6 by confocal microscopy.

[5] = test system: NF-κB; assay: NF-κB activity in treated Min and wild-type mice; type: in vivo; conditions: NO-ASA 100 mg/kg or Dex 10 mg/kg daily for 7 days
Method: as §2, §3

[6] = test system: NF-κB p65; assay: Co-localization of annexin 1 and p65 in intestinal epithelial cells of treated mice; type: in vivo; conditions: NO-ASA 100 mg/kg, 7 days
Method: as §3

## nitric oxide-donating aspirin [NO-ASA]
[1]; cytoplasm
  time of maximal annexin 1 levels in the cytoplasm: 3 h
[1]; nuclear and cytoplasmic extracts
  expression of annexin 1: induced
[1]; nucleus
  time of peak annexin 1 levels in the nucleus: 3 h
[2]
  expression of annexin 1: induced
[3]
  co-immunoprecipitation of annexin 1 with p65: co-immunoprecipitated with p65
[4]; Min mice
  levels of annexin 1: increased
[4]; wild-type mice
  levels of annexin 1: increased
[5]; Min mice
  NF-κB activity: inhibited NF-κB activity
[5]; wild-type mice
  NF-κB activity: inhibited NF-κB activity
[6]; Min mice
  colocalization of annexin 1 and p65 in intestinal cells: greatly enhanced
[6]; wild type mice
  colocalization of annexin 1 and p65 in intestinal cells: modest but significant colocalization
